pIC50, pKi: −log10 of the molar value. Like-named read-outs stand apart in the source and are kept apart here.
Experiments:
intestinal maltase = intestinal maltase activity, maltitol as substrate; type: biochemical
Description: (§1) (B) Sucrase and Maltase. Intestinal sucrase and maltase activities were determined by measuring the formation of reducing sugar from sucrose and maltitol, respectively. The reaction mixture contained 7.5 micromoles sodium citrate buffer, pH 6, 9 micromoles of substrate (sucrose or maltitol), and enzyme, in a final volume of 0.3 ml. […] For both enzymes, activity was proportional with time, and amount of protein. As described above for the arylglycosidases, inhibitors were preincubated with enzyme prior to the addition of substrate.

uninfected MDCK cells [1] = details: 50 micro g/ml, 60 min
Description: (§2) The cells then were incubated for 15-120 min with either [2-^3 H]mannose (20 micro Ci/ml) or [4,5-^3 H]leucine (10 micro Ci/ml) to label lipid-linked saccharides and cellular proteins, respectively. At the end of the labeling period, the medium was removed by aspiration, and the monolayers were washed 3 times with PB S. One ml of PBS was added to each well, the cells were dislodged by scraping, and were then quantitatively transferred to reaction tubes. Each well was washed with another 1 ml of PBS and this rinse was also added to the initial tube. Radioactivity incorporated into lipid-linked monosaccharides and oligosaccharides was determined after extraction with chloroform:methanol:water (1:1:1) and chloroform:methanol:water (10:10:3), respectively, as previously described (60).
(§3) Uninfected MDCK cells were grown in 6well Limbro tissue culture dishes. A
(§4) confluency, australine was added to some wells to the final concentration
(§5) listed above. After a 2 hour incubation to allow the alkaloid to take
(§6) effect, [^3 H]mannose was added to a final concentration of 20 micro
(§7) Ci/ml, and the incubations were continued. At the times shown, the medium
(§8) was removed by aspiration, and the monolayers were washed three times wit
(§9) PBS. The cells were released from the wells by scraping, placed in tubes,
(§10) then sequentially extracted with chloroform:methanol:water (1:1:1) for
(§11) lipidlinked monosaccharides, and chloroform:methanol:water (10:10:3) for
(§12) lipidlinked oligosaccharides. The total radioactivity incorporated into
(§13) the lipidlinked sugars was determined by liquid scintillation counting.

uninfected MDCK cells [2] = assay: incorporation of [3H]mannose into lipid-linked saccharides
Description: as §2, §3, §4, §5, §6, §7, §8, §9, §10, §11, §12, §13

[3] = tested on: human immunodeficiency virus (HIV-1); assay: replication of HIV-1 in tissue culture cells; type: cell-based
uninfected MDCK cells [4] = tested on: uninfected MDCK cells
Description: (§14) The cells then were incubated for 15-120 min with either [2-^3 H]mannose (20 micro Ci/ml) or [4,5-^3 H]leucine (10 micro Ci/ml) to label lipid-linked saccharides and cellular proteins, respectively. At the end of the labeling period, the medium was removed by aspiration, and the monolayers were washed 3 times with PB S. One ml of PBS was added to each well, the cells were dislodged by scraping, and were then quantitatively transferred to reaction tubes. Each well was washed with another 1 ml of PBS and this rinse was also added to the initial tube. […] For the incorporation of radiolabel into protein, cells were extracted with TCA at a final concentration of 20% in the presence of 500 micro g of bovine serum albumin. Following an overnight incubation at 4° C., precipitated protein was isolated by centrifugation. The precipitate was washed twice with 5% TCA, and once with absolute methanol, and then digested with Pronase as described above. Pronase-released radioactivity was measured by liquid scintillation counting.
(§15) Uninfected MDCK cells were grown in 6well Limbro tissue culture dishes.
as §4
(§16) After a 2 hours incubation to allow the alkaloid to take
At the times shown, the medium
as §8, §9
(§17) and extracted with 20% TCA as described above. Radioactivity incorporated
(§18) into total cellular protein was determined after Pronase digestion by
liquid scintillation counting.

[5] = tested on: influenza virus glycoproteins in infected MDCK cells; assay: glycoprotein processing in influenza virus-infected MDCK cells (Endo H-sensitive oligosaccharides); details: mannose-labeled glycopeptide, printed as 10 micro g/ml
Beta-Mannosidase = Beta-Mannosidase (Aspergillus niger, UniProt Q9UUZ3); assay: beta-mannosidase inhibition; type: biochemical
Beta-Mannosidase, sequence (Q9UUZ3 22-931): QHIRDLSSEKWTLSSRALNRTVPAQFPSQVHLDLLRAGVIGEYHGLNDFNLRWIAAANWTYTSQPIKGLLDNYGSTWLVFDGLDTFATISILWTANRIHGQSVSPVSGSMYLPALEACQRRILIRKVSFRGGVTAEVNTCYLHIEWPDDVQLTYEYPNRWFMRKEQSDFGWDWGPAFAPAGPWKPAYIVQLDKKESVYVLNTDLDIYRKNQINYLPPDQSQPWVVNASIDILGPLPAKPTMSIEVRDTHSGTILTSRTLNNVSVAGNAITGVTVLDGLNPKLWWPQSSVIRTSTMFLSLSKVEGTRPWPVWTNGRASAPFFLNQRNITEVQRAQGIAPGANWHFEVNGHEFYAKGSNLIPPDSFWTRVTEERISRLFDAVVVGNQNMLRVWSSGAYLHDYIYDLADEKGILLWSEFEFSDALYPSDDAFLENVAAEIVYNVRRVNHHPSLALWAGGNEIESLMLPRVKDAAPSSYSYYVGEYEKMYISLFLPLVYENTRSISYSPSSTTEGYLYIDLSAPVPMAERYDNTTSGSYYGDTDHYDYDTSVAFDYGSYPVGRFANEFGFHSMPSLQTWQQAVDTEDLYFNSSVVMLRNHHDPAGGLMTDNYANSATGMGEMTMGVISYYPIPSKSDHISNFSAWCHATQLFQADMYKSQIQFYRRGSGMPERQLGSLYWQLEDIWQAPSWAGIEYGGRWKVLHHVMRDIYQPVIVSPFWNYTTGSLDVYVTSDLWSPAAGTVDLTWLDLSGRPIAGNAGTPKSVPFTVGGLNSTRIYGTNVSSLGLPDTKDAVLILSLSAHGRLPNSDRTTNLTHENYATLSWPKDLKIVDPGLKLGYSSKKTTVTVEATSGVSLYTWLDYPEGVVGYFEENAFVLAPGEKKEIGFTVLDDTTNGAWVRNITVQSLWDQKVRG

alpha-mannosidase = molecular target: T1, alpha-mannosidase (Canavalia ensiformis, UniProt C0HJB3); assay: alpha-mannosidase inhibition; type: biochemical, jack bean
T1 construct: purchased Sigma Chemical Company
T1 sequence (C0HJB3 whole entry): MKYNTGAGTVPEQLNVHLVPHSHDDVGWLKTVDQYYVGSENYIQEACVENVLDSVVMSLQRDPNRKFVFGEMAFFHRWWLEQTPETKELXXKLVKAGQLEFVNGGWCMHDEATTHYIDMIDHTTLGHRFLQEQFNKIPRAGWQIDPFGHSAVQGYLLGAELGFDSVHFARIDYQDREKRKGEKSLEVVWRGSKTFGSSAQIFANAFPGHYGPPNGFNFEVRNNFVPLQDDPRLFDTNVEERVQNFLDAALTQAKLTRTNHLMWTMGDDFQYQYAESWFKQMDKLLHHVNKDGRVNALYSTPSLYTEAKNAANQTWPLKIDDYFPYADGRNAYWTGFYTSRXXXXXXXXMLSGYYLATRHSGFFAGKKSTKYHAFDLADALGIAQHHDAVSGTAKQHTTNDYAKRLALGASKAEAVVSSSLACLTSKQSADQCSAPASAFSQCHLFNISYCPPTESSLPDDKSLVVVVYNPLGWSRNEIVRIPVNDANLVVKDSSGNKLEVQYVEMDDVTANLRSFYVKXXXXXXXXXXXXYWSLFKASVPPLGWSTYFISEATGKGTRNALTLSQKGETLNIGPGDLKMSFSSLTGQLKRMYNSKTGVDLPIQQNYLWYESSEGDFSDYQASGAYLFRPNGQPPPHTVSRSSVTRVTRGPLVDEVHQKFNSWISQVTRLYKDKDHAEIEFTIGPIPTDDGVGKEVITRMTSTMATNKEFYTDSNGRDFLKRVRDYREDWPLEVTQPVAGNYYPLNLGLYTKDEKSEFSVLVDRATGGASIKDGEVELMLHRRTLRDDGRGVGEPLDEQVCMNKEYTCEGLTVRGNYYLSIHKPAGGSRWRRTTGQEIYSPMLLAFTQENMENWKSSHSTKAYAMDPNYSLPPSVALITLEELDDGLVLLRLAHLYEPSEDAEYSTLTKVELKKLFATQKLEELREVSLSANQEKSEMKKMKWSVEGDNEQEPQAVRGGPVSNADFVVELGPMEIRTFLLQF

beta-galactosidase = beta-galactosidase inhibition; type: biochemical, bovine
amyloglucosidase = molecular target: T2, amyloglucosidase (Aspergillus niger, UniProt P69328); assay: amyloglucosidase (alpha-glucosidase) inhibition, p-nitrophenyl-alpha-D-glucoside substrate; type: biochemical
T2 construct: purchased Sigma Chemical Company
T2 sequence (P69328 25-640): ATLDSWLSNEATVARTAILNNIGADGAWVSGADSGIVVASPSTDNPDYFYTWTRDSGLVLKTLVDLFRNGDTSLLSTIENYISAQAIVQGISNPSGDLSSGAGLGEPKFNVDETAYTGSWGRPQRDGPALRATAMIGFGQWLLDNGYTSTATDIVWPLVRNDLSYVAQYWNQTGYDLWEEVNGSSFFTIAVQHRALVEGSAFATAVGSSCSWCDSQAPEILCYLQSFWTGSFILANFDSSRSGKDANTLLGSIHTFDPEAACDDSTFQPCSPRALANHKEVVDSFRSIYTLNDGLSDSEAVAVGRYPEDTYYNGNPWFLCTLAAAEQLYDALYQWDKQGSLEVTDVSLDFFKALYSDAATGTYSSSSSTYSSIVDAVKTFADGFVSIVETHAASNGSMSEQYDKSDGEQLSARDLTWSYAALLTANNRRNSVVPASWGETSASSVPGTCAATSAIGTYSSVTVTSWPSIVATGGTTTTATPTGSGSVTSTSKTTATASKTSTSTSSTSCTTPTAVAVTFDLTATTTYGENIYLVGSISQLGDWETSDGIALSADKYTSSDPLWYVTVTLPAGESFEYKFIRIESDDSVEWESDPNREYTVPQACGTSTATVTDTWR

glucosidase II = assay: processing glucosidase II, release of p-nitrophenol from p-nitrophenyl-alpha-D-glucoside; type: biochemical, mung bean
beta-glucosidase = beta-glucosidase inhibition, p-nitrophenyl-glycoside substrate; type: biochemical, almonds
alpha-galactosidase = alpha-galactosidase inhibition; type: biochemical, Aspergillus niger
intestinal sucrase = molecular target: T3, intestinal sucrase (Homo sapiens, UniProt P14410); assay: intestinal sucrase activity, sucrose as substrate; type: biochemical
T3 construct: from tissue
T3 sequence (P14410 whole entry): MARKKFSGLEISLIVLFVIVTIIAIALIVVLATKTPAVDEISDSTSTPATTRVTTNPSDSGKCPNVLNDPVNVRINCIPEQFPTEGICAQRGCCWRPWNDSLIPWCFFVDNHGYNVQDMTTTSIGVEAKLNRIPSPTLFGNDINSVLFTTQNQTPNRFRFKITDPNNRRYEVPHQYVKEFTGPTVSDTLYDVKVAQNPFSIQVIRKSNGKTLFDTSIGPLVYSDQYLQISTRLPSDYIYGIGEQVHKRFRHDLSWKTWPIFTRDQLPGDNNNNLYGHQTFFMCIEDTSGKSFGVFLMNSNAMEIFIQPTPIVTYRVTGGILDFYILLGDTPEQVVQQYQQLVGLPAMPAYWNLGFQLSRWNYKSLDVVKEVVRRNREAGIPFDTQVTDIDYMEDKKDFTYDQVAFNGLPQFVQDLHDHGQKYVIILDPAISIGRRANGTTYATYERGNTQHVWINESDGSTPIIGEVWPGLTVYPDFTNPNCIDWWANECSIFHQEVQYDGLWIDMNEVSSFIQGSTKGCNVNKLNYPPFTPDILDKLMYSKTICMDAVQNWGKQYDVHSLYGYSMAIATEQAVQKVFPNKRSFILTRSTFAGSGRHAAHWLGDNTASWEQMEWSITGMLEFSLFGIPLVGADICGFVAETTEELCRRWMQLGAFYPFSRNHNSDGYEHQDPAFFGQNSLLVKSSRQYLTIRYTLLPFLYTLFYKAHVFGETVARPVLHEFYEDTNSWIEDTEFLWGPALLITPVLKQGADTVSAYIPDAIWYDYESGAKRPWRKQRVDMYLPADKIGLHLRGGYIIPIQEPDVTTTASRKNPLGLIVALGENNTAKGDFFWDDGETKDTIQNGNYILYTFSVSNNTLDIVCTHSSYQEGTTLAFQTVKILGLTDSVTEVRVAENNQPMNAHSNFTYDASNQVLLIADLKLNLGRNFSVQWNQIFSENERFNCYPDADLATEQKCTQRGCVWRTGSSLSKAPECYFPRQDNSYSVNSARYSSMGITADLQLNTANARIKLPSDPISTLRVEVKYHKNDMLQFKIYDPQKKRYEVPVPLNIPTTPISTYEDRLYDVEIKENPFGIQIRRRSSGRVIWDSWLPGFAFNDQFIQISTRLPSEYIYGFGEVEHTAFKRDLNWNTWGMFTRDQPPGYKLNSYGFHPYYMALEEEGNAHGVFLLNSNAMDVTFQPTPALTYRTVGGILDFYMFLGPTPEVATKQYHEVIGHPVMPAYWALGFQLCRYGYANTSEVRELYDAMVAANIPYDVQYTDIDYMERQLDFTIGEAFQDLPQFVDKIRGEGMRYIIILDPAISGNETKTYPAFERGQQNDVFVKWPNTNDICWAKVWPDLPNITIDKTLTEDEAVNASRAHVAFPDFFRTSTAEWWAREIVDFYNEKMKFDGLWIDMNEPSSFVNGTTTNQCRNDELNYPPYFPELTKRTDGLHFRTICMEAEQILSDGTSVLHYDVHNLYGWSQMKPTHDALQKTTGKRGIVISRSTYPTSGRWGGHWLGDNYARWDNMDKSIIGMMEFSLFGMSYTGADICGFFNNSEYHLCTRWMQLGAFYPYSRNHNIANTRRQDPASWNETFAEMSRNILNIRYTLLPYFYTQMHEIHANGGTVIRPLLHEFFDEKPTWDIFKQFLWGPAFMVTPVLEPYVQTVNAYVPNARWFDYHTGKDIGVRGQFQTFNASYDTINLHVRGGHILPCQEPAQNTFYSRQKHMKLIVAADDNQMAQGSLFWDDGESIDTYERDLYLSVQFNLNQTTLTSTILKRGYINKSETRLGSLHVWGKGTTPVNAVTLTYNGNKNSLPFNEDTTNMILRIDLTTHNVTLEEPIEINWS
Description: as §1

glucosidase I = assay: processing glucosidase I, release of [3H]glucose from Glc3Man9GlcNAc; type: biochemical, mung bean
uninfected MDCK cells [6] = assay: incorporation of [3H]leucine into protein (protein synthesis)
Description: as §14, §15, §4, §16
At the times shown, the medium
as §8, §9, §17, §18
liquid scintillation counting.

[7] = tested on: influenza virus glycoproteins in infected MDCK cells; details: cited from earlier work
glycosidases = assay: glycosidase inhibitory activity against generally available glycosidases; type: biochemical
Source text: GENERAL EX[…]. The alkaloids were monitored for purity by tlc on 0.25 mm silica gel plates developed with CHCl3 :MeOH:HN4 OH:H2 O (70:26:2:2) and detected by spraying with acetic anhydride followed by Ehrlich's reagent (21). Homogeneity was also checked by gc of the TMS derivatives, prepared by treatment with MSTFA in pyridine, on a Hewlett-Packard 5830 instrument equipped with a flame-ionization detector, on-column injector, and a 30-m×0.32-mm i.d. SE-30 fused silica column. Low resolution electron and ammonia chemical ionization mass spectra were obtained on a VG Micromass 7070 mass spectrometer; high resolution mass measurements were determined on the same instrument. Optical rotations were measured in a 1-dm cell on a Perkin-Elmer 241 automatic polarimeter. Nuclear magnetic resonance spectra were determined in D2 O on a Nicolet NTC 200FT spectrometer with software package at 200 MHz (^1 H) and at 50.3 MHz (^13 C) using 3-(trimethylsilyl)-1-propanesulfonic acid (TSP) as an internal standard. Multiplicities for ^13 C signals were determined by application of the carbon attached proton test (CAPT) sequence. Preparative centrifugal tlc was performed on a Chromatotron Model 7924 (Harrison Research, Palo Alto, Calif.). Enzyme assay methods have been previously described (67), Melting points are uncorrected.

[8] = concentrations up to 500 micro M

OC[C@@H]1[C@@H](O)[C@H](O)[C@H]2[C@@H](O)CCN21 [australine, (1R, 2R, 3R, 7S, 7aR)-3-hydroxymethyl-1,2,7-trihydroxypyrrolizidine]
pKi (intestinal maltase): ~4.46
Radioactivity, Lipid-linked oligosaccharides (uninfected MDCK cells [1]): 1077 cpm
incorporation of [3H]mannose into lipid-linked oligosaccharide (uninfected MDCK cells [2]; 50-500 micro g/ml): appeared to be stimulated
Radioactivity, Lipid-linked monosaccharides (uninfected MDCK cells [2]; 50 micro g/ml, 15 min): 97 cpm
Radioactivity, Lipid-linked oligosaccharides (uninfected MDCK cells [2]; 50 micro g/ml, 15 min): 1672 cpm
Radioactivity, Lipid-linked monosaccharides (uninfected MDCK cells [2]; 50 micro g/ml, 30 min): 122 cpm
Radioactivity, Lipid-linked oligosaccharides (uninfected MDCK cells [2]; 50 micro g/ml, 30 min): 5021 cpm
Radioactivity, Lipid-linked monosaccharides (uninfected MDCK cells [2]; 50 micro g/ml, 60 min): 229 cpm
Radioactivity, Lipid-linked monosaccharides (uninfected MDCK cells [2]; 100 micro g/ml, 15 min): 101 cpm
Radioactivity, Lipid-linked oligosaccharides (uninfected MDCK cells [2]; 100 micro g/ml, 15 min): 2336 cpm
Radioactivity, Lipid-linked monosaccharides (uninfected MDCK cells [2]; 100 micro g/ml, 30 min): 151 cpm
Radioactivity, Lipid-linked oligosaccharides (uninfected MDCK cells [2]; 100 micro g/ml, 30 min): 5335 cpm
Radioactivity, Lipid-linked monosaccharides (uninfected MDCK cells [2]; 100 micro g/ml, 60 min): 244 cpm
Radioactivity, Lipid-linked oligosaccharides (uninfected MDCK cells [2]; 100 micro g/ml, 60 min): 1104 cpm
Radioactivity, Lipid-linked monosaccharides (uninfected MDCK cells [2]; 250 micro g/ml, 15 min): 107 cpm
Radioactivity, Lipid-linked oligosaccharides (uninfected MDCK cells [2]; 250 micro g/ml, 15 min): 2073 cpm
Radioactivity, Lipid-linked monosaccharides (uninfected MDCK cells [2]; 250 micro g/ml, 30 min): 115 cpm
Radioactivity, Lipid-linked oligosaccharides (uninfected MDCK cells [2]; 250 micro g/ml, 30 min): 5661 cpm
Radioactivity, Lipid-linked monosaccharides (uninfected MDCK cells [2]; 250 micro g/ml, 60 min): 212 cpm
Radioactivity, Lipid-linked oligosaccharides (uninfected MDCK cells [2]; 250 micro g/ml, 60 min): 995 cpm
Radioactivity, Lipid-linked monosaccharides (uninfected MDCK cells [2]; 500 micro g/ml, 15 min): 96 cpm
Radioactivity, Lipid-linked oligosaccharides (uninfected MDCK cells [2]; 500 micro g/ml, 15 min): 2957 cpm
Radioactivity, Lipid-linked monosaccharides (uninfected MDCK cells [2]; 500 micro g/ml, 30 min): 178 cpm
Radioactivity, Lipid-linked oligosaccharides (uninfected MDCK cells [2]; 500 micro g/ml, 30 min): 6167 cpm
Radioactivity, Lipid-linked monosaccharides (uninfected MDCK cells [2]; 500 micro g/ml, 60 min): 236 cpm
Radioactivity, Lipid-linked oligosaccharides (uninfected MDCK cells [2]; 500 micro g/ml, 60 min): 1108 cpm
inhibition of HIV-1 replication [3]: inhibited the growth of the virus, but this alkaloid was not as effective as an inhibitor as was castanospermine
Radioactivity incorporated into protein (uninfected MDCK cells [4]; 50 micro ug/ml, 30 min): 9252 cpm
Radioactivity incorporated into protein (uninfected MDCK cells [4]; 100 micro ug/ml, 30 min): 8304 cpm
Radioactivity incorporated into protein (uninfected MDCK cells [4]; 100 micro ug/ml, 60 min): 1588 cpm
Radioactivity incorporated into protein (uninfected MDCK cells [4]; 100 micro ug/ml, 90 min): 25636 cpm
Radioactivity incorporated into protein (uninfected MDCK cells [4]; 100 micro ug/ml, 120 min): 32008 cpm
Endo H-released proportion [5]: 55%
inhibition of beta-mannosidase (Beta-Mannosidase): No significant inhibition
effect on beta-mannosidase (Beta-Mannosidase; [8]): no apparent effect
inhibition of alpha-mannosidase (alpha-mannosidase): No significant inhibition
effect on alpha-mannosidase (alpha-mannosidase; [8]): no apparent effect
inhibition of beta-galactosidase (beta-galactosidase): No significant inhibition
effect on beta-galactosidase (beta-galactosidase; [8]): no apparent effect
pKi (amyloglucosidase; Example 2, p-nitrophenyl-alpha-D-glucoside substrate, read-out: apparent Ki): 5.24
type of inhibition (amyloglucosidase; Lineweaver-Burk, 0.5 and 1 micro g/ml australine): competitive
activity against glucosidase II (glucosidase II; [8]): no activity
inhibition of beta-glucosidase (beta-glucosidase): No significant inhibition
inhibition of beta-glucosidase activity (beta-glucosidase; at 66 micro M): less than 5%
inhibition of alpha-galactosidase (alpha-galactosidase): No significant inhibition
effect on alpha-galactosidase (alpha-galactosidase; [8]): no apparent effect
pKi (intestinal sucrase): ~4.55
pKi (glucosidase I): ~4.70
Radioactivity incorporated into protein (uninfected MDCK cells [6]; 50 micro ug/ml, 60 min): 16572 cpm
Radioactivity incorporated into protein (uninfected MDCK cells [6]; 50 micro ug/ml, 90 min): 23341 cpm
Radioactivity incorporated into protein (uninfected MDCK cells [6]; 50 micro ug/ml, 120 min): 33704 cpm
effect on overall rate of protein synthesis (uninfected MDCK cells [6]; 50 to 500 micro g/ml, times up to 120 min): little effect
Radioactivity incorporated into protein (uninfected MDCK cells [6]; 250 micro ug/ml, 30 min): 8064 cpm
Radioactivity incorporated into protein (uninfected MDCK cells [6]; 250 micro ug/ml, 60 min): 13604 cpm
Radioactivity incorporated into protein (uninfected MDCK cells [6]; 250 micro ug/ml, 90 min): 27776 cpm
Radioactivity incorporated into protein (uninfected MDCK cells [6]; 250 micro ug/ml, 120 min): 36140 cpm
Radioactivity incorporated into protein (uninfected MDCK cells [6]; 500 micro ug/ml, 30 min): 9124 cpm
Radioactivity incorporated into protein (uninfected MDCK cells [6]; 500 micro ug/ml, 60 min): 15648 cpm
Radioactivity incorporated into protein (uninfected MDCK cells [6]; 500 micro ug/ml, 90 min): 26060 cpm
Radioactivity incorporated into protein (uninfected MDCK cells [6]; 500 micro ug/ml, 120 min): 32704 cpm

O[C@H]1[C@H](O)[C@@H](O)CN2CC[C@H](O)[C@H]12 [castanospermine, reference compound]
pKi (intestinal maltase): > 6.00
concentration producing the same degree of inhibition (increased proportion of Endo H-susceptible glycopeptides) as 500 micro g/ml australine [7]: 10 micro g/ml
pKi (amyloglucosidase; Example 1, read-out: Ki): 5.10
inhibition of glucosidase II (glucosidase II): inhibited by micromolar amounts
inhibition of beta-glucosidase (beta-glucosidase): inhibited
pIC50 (beta-glucosidase; read-out: level which inhibited 50% of the beta-glucosidase activity): 4.18
pKi (intestinal sucrase): > 6.00
pKi (glucosidase I): ~6.00

OC[C@H]1NCC[C@@H](O)[C@@H]1O [fagomine, 1,2,5-trideoxy-1,5-imino-D-arabino-hexitol, reference compound]
inhibition of beta-mannosidase (Beta-Mannosidase): No significant glycosidase inhibitory activity
inhibition of alpha-mannosidase (alpha-mannosidase): No significant glycosidase inhibitory activity
inhibition of beta-galactosidase (beta-galactosidase): No significant glycosidase inhibitory activity
glycosidase inhibitory activity against alpha-glucosidase (amyloglucosidase; commercially available enzyme): No significant glycosidase inhibitory activity
glycosidase inhibitory activity (glycosidases): no inhibitory activity
inhibition of beta-glucosidase (beta-glucosidase): No significant glycosidase inhibitory activity
inhibition of alpha-galactosidase (alpha-galactosidase): No significant glycosidase inhibitory activity

OC[C@@H]1[C@@H]2[C@H](O)CCN2C[C@H]1O [rosmarinecine]
glycosidase inhibitory activity (glycosidases): lack glycosidase inhibitory activity
